Measured values: paper PMC9768754, “Enriching Chemical Space of Bioactive Scaffolds by New Ring Systems: Benzazocines and Their Metal Complexes as Potential Anticancer Drugs” (Inorganic Chemistry, 2022)
Like-named read-outs stand apart in the source and are kept apart here.

How the values were obtained:
[1] = Solubility in water/1% DMSO; assay type: physicochemical
MDA-MB-361 = experiment: MTT cytotoxicity assay, monolayer culture; assay type: cell-based, human; conditions: 72 h continuous drug action, 2D monolayer, read-out: IC50 (μM) ± S.D. MDA-MB-361
Source text: (§1) The cytotoxicity of metal-free indolobenzazocines HL^1–HL^5 and their metal complexes 1a, 1b, and 2–5 was investigated by the colorimetric MTT assay in a panel of four human cancer cell lines, namely, human colon carcinoma HCT116 and LS-174, breast adenocarcinoma MDA-MB-361, and lung adenocarcinoma A549, as well as in human non-malignant cell line MRC-5 maintained as monolayer culture. Cisplatin or cis-diamminedichloridoplatinum(II) (CDDP), a well-known chemotherapeutic agent, was used as a positive control. The results obtained after 72 h of continuous drug action are presented as IC50 values (μM) in Table 1.
(§2) Human tumor cell lines derived from human colorectal carcinoma, LS-174 and HCT116, human breast adenocarcinoma, MDA-MB-361, human lung adenocarcinoma, A549, and non-tumor human fetal lung fibroblast cell line, MRC-5, were maintained as a monolayer culture in the Roswell Park Memorial Institute (RPMI) 1640 nutrient medium (Sigma Chemicals Co, USA). RPMI 1640 medium was prepared in sterile ionized water, supplemented with penicillin (100 IU/mL), streptomycin (200 μg/mL), 4-(2-hydroxyethyl) piperazine-1-ethanesulfonic acid (HEPES) (25 mM), L-glutamine (3 mM), and 10% of heat-inactivated fetal calf serum (FCS) (pH = 7.2). The cells were grown at 37 °C in a humidified atmosphere containing 5% CO2.
(§3) Cells were seeded into 96-well culture plates (Thermo Scientific Nunc) at cell densities of 5000 cells per well (HCT116, A549, and MRC-5) and 8000 cells/well (LS-174 and MDA-MB-361) in 100 μL of cell culture medium and left overnight. Eleven tested compounds were dissolved in DMSO to the stock concentration of 20 mM immediately before the experiment, whereas further dilutions were made in the culture medium so that the final concentration of DMSO never exceeded 1% (v/v). Cisplatin (cis-diamminedichloridoplatinum(II), CDDP) was used as a reference compound. After 72 h of continuous incubation, MTT solution (3-(4.5-dimethylthiazol-2-yl)-2.5-diphenyltetrazolium bromide, Sigma-Aldrich) was added to each well (5 mg/mL).[63] The culture plates were incubated at 37 °C for the next 4 h, and finally, 10% sodium dodecyl sulfate (SDS) was added to dissolve formed formazan crystals. Absorbances were measured after 24 h on a microplate reader (Thermo Labsystems Multiscan EX 200–240 V) at a wavelength of 570 nm.

A549 = experiment: MTT cytotoxicity assay, monolayer culture; assay type: cell-based, human; conditions: 2D monolayer, read-out: IC50 (μM) ± S.D. A549
Source text: as §1, §2, §3

HCT116 = experiment: MTT cytotoxicity assay, monolayer culture; assay type: cell-based, human; conditions: 72 h continuous drug action, 2D monolayer, read-out: IC50 (μM) ± S.D. HCT116
Source text: as §1, §2, §3

LS-174 = experiment: MTT cytotoxicity assay, monolayer culture; assay type: cell-based, human; conditions: 2D monolayer, read-out: IC50 (μM) ± S.D. LS-174
Source text: as §1, §2, §3

MRC-5 = experiment: MTT cytotoxicity assay, monolayer culture; assay type: cell-based, human; conditions: non-malignant cell line, read-out: IC50 (μM) ± S.D. MRC-5
Source text: as §1, §2, §3

[2] = Stability in aqueous solution containing 1% DMSO by UV-vis spectroscopy; assay type: physicochemical; conditions: over 48 h
Description: The stability of ligands HL^2 and HL^3 in aqueous solution containing 1% DMSO over 24 and 48 h was monitored by UV–vis spectroscopy (Figure S30 in the Supporting Information). Similarly, the behavior of complexes 1a and 1b as well as 2 and 3 was investigated in aqueous solutions containing 1% DMSO over 12 and 48 h by optical spectroscopy (Figures S31 and S32). […] High thermodynamic and kinetic stability of five-coordinate complexes reported herein can presumably be explained in terms of hard and soft acids and bases theory. Cu^2+ as a borderline metal ion is expected to bind to a soft base, for example, S atom instead of terminal N atom, as is the case for thiosemicarbazides. However, the hard–soft character of the metal ion might be altered by the other ligands attached due to symbiotic effects.[30] This might be the case herein, where bonding of copper(II) to four hard base ligands, namely, to two N atoms (N7 and N15 in Figure 1) and two Cl^– co-ligands, as well as to one borderline base N(pyridine) atom, can reduce the softness of Cu^2+, leading to increased stability of the complexes.

HCT116 cells = experiment: Annexin V-FITC/PI apoptosis assay by flow cytometry; assay type: cell-based, human; conditions: HCT116, 48 h, 3× IC50; non-treated control 2.29%
Source text: The obtained experimental data are presented in Figure 4 as percentages of early apoptotic cells (Annexin V-positive/PI-negative staining), late apoptotic and necrotic cells (Annexin V-positive/PI-positive staining), and dead cells (Annexin V-negative/PI-positive staining). By the current test (BD Pharmingen protocol)[39] for the cells which are already dead (Annexin V-negative/PI-positive staining), we cannot distinguish between types of the occurred cell death.
Quantitative analysis of apoptotic and necrotic cell death induced by the investigated complexes and CDDP was performed by Annexin V-FITC/PI assay. 2 × 10^5 HCT116 or 3 × 10^5 LS-174 cells were seeded into six-well plates (Thermo Scientific Nunc), and after 24 h of growth, cells were treated with tested compounds or CDDP. Following the 24 h and 48 h incubation time, cells were harvested and resuspended in 200 μL 1 × Binding Buffer (10 mM HEPES/NaOH pH 7.4, 140 mM NaCl, 2.5 mM CaCl2). 100 μL of the cell suspension (∼1 × 10^5 cells) was transferred to a 5 mL round-bottom polystyrene tube (Falcon, Corning) and mixed with 5 μL of both FITC Annexin V (BD Pharmingen[39]) and PI (50 μg/mL in PBS).[65] […] Samples were analyzed using an FACS BD Calibur flow cytometer (Becton–Dickinson, Heidelberg Germany) and Cell Quest computer software.

HCT116 MCTS = experiment: MTT assay in 3D multicellular tumor spheroid (MCTS) model; assay type: cell-based, human; conditions: 3D MCTS, 72 h continuous drug action, read-out: IC50 (μM) ± S.D. HCT116, 3D cell culture model
Source text: (§4) Due to the complex tissue environment, 3D multicellular tumor spheroid (MCTS) models mimic the in vivo architecture closer than 2D cell cultures, thereby allowing more precise prediction of effectiveness of organic drug candidates as well as metal-based ones in animal models.[41]−[44] The efficacy of HL^5, 5, and cisplatin in the 3D MCTS model was investigated in two human colorectal cancer cell lines (CRC) LS-174 and HCT116. We used ultra-low attachment (ULA) plates for the growth of spheroids. Spheroids were incubated for 72 h and then photographed, and IC50 values were determined using MTT assay. Tumor spheroids of diameter >500 μm selected for treatment reflect to a certain extent the tumor complexity as they are composed of several specialized areas and layers where cells show different phenotypic, functional, and metabolic behaviors.[45] They display an organized architecture with an external layer composed of proliferating cells, an intermediate zone composed of quiescent and senescent cells, and an inner apoptotic and necrotic core which is the result of the reduced distribution of nutrients and oxygen in these areas.[46],[47]
(§5) The MCTSs as 3D cell culture models were established by seeding cells at optimized densities between 500 and 1500 cells/well in the ultra-low attachment (ULA) U96-well plate Thermo Scientific Nunclon Sphera in their respective culture media.[34] […]

LS-174 MCTS = experiment: as above; assay type: cell-based, human; conditions: 3D MCTS, 72 h continuous drug action, read-out: IC50 (μM) ± S.D. LS-174, 3D cell culture model
Source text: as §4, §5

Row | Compound | Solubility in water/1% DMSO [1] | IC50 (MDA-MB-361) | IC50 (A549; 72 h continuous drug action) | IC50 (HCT116) | IC50 (LS-174; 72 h continuous drug action) | IC50 (MRC-5; 72 h continuous drug action) | stability by UV-vis absorption spectra [2] | IC50 (A549; Homo sapiens, A549, 72 h continuous drug action) | IC50 (LS-174; Homo sapiens, LS174, 72 h continuous drug action) | IC50 (MRC-5; Homo sapiens, MRC5, 72 h continuous drug action) | early apoptotic cells (Annexin V-positive/PI-negative) (HCT116 cells) | IC50 (HCT116 MCTS) | IC50 (LS-174 MCTS)
1 | Cc1ccc(C(C)C)cc1.O=C1NCCc2ccccc2-c2[nH]c3ccc([N+]4=Cc5cccc[n+]5[Os-]4[Cl])cc3c21.[Cl-] [1b] | ≥ 1.0 mg mL^–1 | 71.9 ± 2.6 µM | 91 ± 9.3 µM | 40.2 ± 6.7 µM | 182 ± 2.1 µM | 84.8 ± 6.6 µM | remained intact |  |  |  |  |  | 
2 | O=C1NCCc2ccccc2-c2[nH]c3ccc(/N=C/c4ccccn4)cc3c21 [HL^1] |  |  |  |  |  |  |  | > 200 µM | 191 ± 5.8 µM | 168 ± 15.8 µM |  |  | 
3 | Cc1ccc(C(C)C)cc1.O=C1NCCc2ccccc2-c2[nH]c3ccc([N+]4=Cc5cccc[n+]5[Ru-]4[Cl])cc3c21.[Cl-] [1a] |  | 91.2 ± 3.5 µM | 160 ± 18.2 µM | 32.9 ± 7.1 µM | > 200 µM | 89.8 ± 2.1 µM | remained intact |  |  |  |  |  | 
4 | N.N.[Cl][Pt][Cl] [CDDP, cis-diamminedichloridoplatinum(II), reference compound] |  | 26.4 ± 3.7 µM | 17.4 ± 3.5 µM | 13.6 ± 1.1 µM | 19 ± 0.5 µM | 8 ± 1.1 µM |  |  |  |  | 19.14% | 19.6 ± 2.2 µM | 17.8 ± 1.2 µM
